Source: patent US20060069132A1, “Azolecarboxamide herbicides” (priority 2004, published 2006)

Key:
corn = assay: Test C pre-/postemergence herbicide test; format: in vivo, Zea mays; conditions: preemergence
Summary of the method: (§1)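 Pre- and postemergence application, solvent/surfactant formulation; post at 1- to 4-leaf stage (2–18 cm). Greenhouse 12–14 d. Visual rating vs controls, 0 = no effect, 100 = complete control.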

woolly cupgrass = assay: Test C pre-/postemergence herbicide test; format: in vivo, Eriochloa villosa; conditions: preemergence
Summary of the method: as §1

soybean = assay: Test C pre-/postemergence herbicide test; format: in vivo, Glycine max; conditions: preemergence
Summary of the method: as §1

barnyardgrass = assay: Test C flooded paddy test; format: in vivo, Echinochloa crus-galli
Summary of the method: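 Weeds and wheat were sprayed after emergence, at a height of 2 to 18 cm (1–4 leaves), and paddy barnyardgrass was flooded and treated at two leaves. Assessment took place 12–14 days later in the greenhouse on a 0-to-100 visual control scale. A dash means no result was obtained.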

morningglory = assay: Test C pre-/postemergence herbicide test; format: in vivo, Ipomoea coccinea; design: key to Plant response rating, Morningglory: 0 = no effect, 100 = complete control; conditions: preemergence
Summary of the method: as §1

kochia = assay: Test C pre-/postemergence herbicide test; format: in vivo, Kochia scoparia; conditions: preemergence
Summary of the method: as §1

yellow nutsedge = assay: Test C pre-/postemergence herbicide test; format: in vivo, Cyperus esculentus; conditions: preemergence
Summary of the method: as §1

[1] = system: smallflower umbrella sedge; assay: Test C flooded paddy test; format: in vivo, Cyperus difformis
lambsquarters = assay: Test C pre-/postemergence herbicide test; format: in vivo, Chenopodium album; conditions: preemergence
Summary of the method: as §1

pigweed = assay: Test C pre-/postemergence herbicide test; format: in vivo, Amaranthus retroflexus; conditions: preemergence
Summary of the method: as §1

goosegrass = assay: Test C pre-/postemergence herbicide test; format: in vivo, Eleusine indica; conditions: preemergence
Summary of the method: as §1

Surinam grass = assay: Test C pre-/postemergence herbicide test; format: in vivo, Urochloa decumbens; conditions: preemergence
Summary of the method: as §1

[2] = 500 g ai/ha, scale 0 to 100 (0 no effect, 100 complete control), visual, 12 to 14 days
[3] = 125 g ai/ha, scale 0 to 100 (0 no effect, 100 complete control)
[4] = 250 g ai/ha, scale of 0 to 100, 0 is no effect, 100 is complete control
[5] = 500 g ai/ha, visual rating after 12 to 14 days, scale 0 to 100 (0 no effect, 100 complete control)

Compound: CCNC(=O)c1cccc(NC(=O)c2nn(C(C)(C)C)nc2C)c1 [Compound 392]
- Plant response rating, Corn (corn; 62 g ai/ha, scale 0 to 100): 30
- Plant response rating (0 = no effect, 100 = complete control), Corn (corn; 125 g ai/ha): 50
- Plant response rating, Corn (corn; 250 g ai/ha, scale 0-100): 80
- Plant response rating, Corn (corn; [2]): 90
- Plant response rating, Cupgrass, Woolly (woolly cupgrass; 62 g ai/ha, scale 0 to 100): 30
- Plant response rating (0 = no effect, 100 = complete control), Cupgrass, Woolly (woolly cupgrass; 125 g ai/ha): 40
- Plant response rating, Cupgrass, Woolly (woolly cupgrass; 250 g ai/ha, scale 0-100): 60
- Plant response rating, Cupgrass, Woolly (woolly cupgrass; [2]): 85
- Plant response rating, Soybean (soybean; 62 g ai/ha, scale 0 to 100): 5
- Plant response rating (0 = no effect, 100 = complete control), Soybean (soybean; 125 g ai/ha): 80
- Plant response rating, Soybean (soybean; 250 g ai/ha, scale 0-100): 90
- Plant response rating, Soybean (soybean; [2]): 95
- Barnyardgrass plant response rating (barnyardgrass; 62 g ai/ha, scale 0 to 100 (0 no effect, 100 complete control)): 15
- Barnyardgrass plant response rating (barnyardgrass; [3]): 45
- Barnyardgrass plant response rating (barnyardgrass; [4]): 80
- Plant response rating, Barnyardgrass (barnyardgrass; [5]): 90
- Plant response rating, Morningglory (morningglory; 62 g ai/ha, scale 0 to 100): 70
- Plant response rating (0 = no effect, 100 = complete control), Morningglory (morningglory; 125 g ai/ha): 95
- Plant response rating, Morningglory (morningglory; 250 g ai/ha, scale 0-100): 100
- Plant response rating, Morningglory (morningglory; [2]): 100
- Plant response rating, Kochia (kochia; 62 g ai/ha, scale 0 to 100): 75
- Plant response rating (0 = no effect, 100 = complete control), Kochia (kochia; 125 g ai/ha): 80
- Plant response rating, Kochia (kochia; 250 g ai/ha, scale 0-100): 100
- Plant response rating, Kochia (kochia; [2]): 100
- Plant response rating, Nutsedge, Yellow (yellow nutsedge; 62 g ai/ha, scale 0 to 100): 0
- Plant response rating (0 = no effect, 100 = complete control), Nutsedge, Yellow (yellow nutsedge; 125 g ai/ha): 10
- Plant response rating, Nutsedge, Yellow (yellow nutsedge; 250 g ai/ha, scale 0-100): 30
- Plant response rating, Nutsedge, Yellow (yellow nutsedge; [2]): 90
- Sedge, Umbrella plant response rating ([1]; 62 g ai/ha, scale 0 to 100): 70
- Sedge, Umbrella plant response rating [1, 3]: 75
- Sedge, Umbrella plant response rating [1, 4]: 85
- Plant response rating, Sedge, Umbrella [1, 5]: 85
- Plant response rating, Lambsquarters (lambsquarters; 62 g ai/ha, scale 0 to 100): 100
- Plant response rating (0 = no effect, 100 = complete control), Lambsquarters (lambsquarters; 125 g ai/ha): 100
- Plant response rating, Lambsquarters (lambsquarters; 250 g ai/ha, scale 0-100): 100
- Plant response rating, Lambsquarters (lambsquarters; [2]): 100
- Plant response rating, Pigweed (pigweed; 62 g ai/ha, scale 0 to 100): 100
- Plant response rating (0 = no effect, 100 = complete control), Pigweed (pigweed; 125 g ai/ha): 100
- Plant response rating, Pigweed (pigweed; 250 g ai/ha, scale 0-100): 100
- Plant response rating, Pigweed (pigweed; [2]): 100
- Plant response rating, Goosegrass (goosegrass; 62 g ai/ha, scale 0 to 100): 85
- Plant response rating (0 = no effect, 100 = complete control), Goosegrass (goosegrass; 125 g ai/ha): 95
- Plant response rating, Goosegrass (goosegrass; 250 g ai/ha, scale 0-100): 95
- Plant response rating, Goosegrass (goosegrass; [2]): 98
- Plant response rating, Surinam Grass (Surinam grass; 62 g ai/ha, scale 0 to 100): 50
- Plant response rating (0 = no effect, 100 = complete control), Surinam Grass (Surinam grass; 125 g ai/ha): 85
- Plant response rating, Surinam Grass (Surinam grass; 250 g ai/ha, scale 0-100): 85
- Plant response rating, Surinam Grass (Surinam grass; [2]): 90
